According to US8987249B2, “Substituted 2-Aza-bicyclo[2.2.1]heptane-3-carboxylic acid (benzyl-cyano-methyl)-amides inhibitors of Cathepsin C” (Boehringer Ingelheim International GmbH, priority 2013, dated 2015):

What was measured:
[1] = target: recombinant human DPPI (Cathepsin C) (Homo sapiens (Human), UniProt P53634); experiment: Inhibition of human DPPI (Cathepsin C); assay type: biochemical; details: substrate Gly-Arg-AMC
Description: Inhibition of Human DPPI (Cathepsin C)
Bovine serum albumin (BSA; Prod. No. A3059) and Dithiothreitol (DTT; Prod. No D0632) were from Sigma. […] The DPP1 inhibitor Gly-Phe-DMK was purchased from MP Biomedicals (Prod.-No. 03DK00625). The recombinant human DPPI was purchased from Prozymex. All other materials were of highest grade commercially available.
The following buffers were used: MES buffer: 25 mM MES, 50 mM NaCl, 5 mM DTT, adjusted to pH 6.0, containing 0.1% BSA; TAGZyme Buffer: 20 mM NaH2PO4, 150 mM NaCl adjusted to pH 6.0 with HCl
Then, 5 μL of substrate in MES buffer (final concentration 50 μM) were added. The microtiter plates were then incubated at room temperature for 30 min. Then, the reaction was stopped by adding 10 μL of Gly-Phe-DMK in MES-buffer (final concentration 1 μM).
The analysis of the data was performed by calculating the percentage of fluorescence in the presence of test compound in comparison to the fluorescence of the vehicle control after subtracting the background fluorescence using the following formula: (RFU(sample)−RFU(background))*100/(RFU(control)−RFU(background))
Data from these calculations were used to generate IC50 values for inhibition of DPPI, respectively.

[2] = target: recombinant human Cathepsin K (Homo sapiens (Human), UniProt P43235); experiment: Inhibition of human Cathepsin K; assay type: biochemical; details: substrate Z-Gly-Pro-Arg-AMC
Chain of recombinant human Cathepsin K (P43235 115-329): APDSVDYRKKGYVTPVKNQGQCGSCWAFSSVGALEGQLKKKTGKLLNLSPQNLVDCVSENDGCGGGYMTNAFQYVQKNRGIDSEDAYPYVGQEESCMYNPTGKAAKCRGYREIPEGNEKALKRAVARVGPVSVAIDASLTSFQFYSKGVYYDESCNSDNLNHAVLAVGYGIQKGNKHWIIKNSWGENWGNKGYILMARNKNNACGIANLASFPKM
Excerpt: Inhibition of Human Cathepsin K
Materials: Microtiterplates (Optiplate-384 F were purchased from PerkinElmer (Prod. No. 6007270). The substrate Z-Gly-Pro-Arg-AMC was from Biomol (Prod.-No. P-142). L-Cysteine (Prod. No. 168149) was from Sigma. Sodium acetate was from Merck (Prod.-No. 6268.0250), EDTA was from Fluka (Prod.-No. 03680). The inhibitor E-64 was purchased from Sigma (Prod.-No. E3132). The recombinant human Cathepsin K proenzyme was purchased from Biomol (Prod. No. SE-367). All other materials were of highest grade commercially available.
The following buffers were used: Activation buffer: 32.5 mM sodium acetate, adjusted to pH 3.5 with HCl; Assay buffer: 150 mM sodium acetate, 4 mM EDTA, 20 mM L-Cysteine, adjusted to pH 5.5 with HCl,
To activate the proenzyme, 5 μl procathepsin K were mixed with 1 ul activation buffer, and incubated at room temperature for 30 min.
5 μL test compound (final concentration 0.1 nM to 100 μM) in aqua bidest (containing 4% DMSO, final DMSO concentration 1%) were mixed with 10 uL of Cathepsin K in assay buffer (final concentration 2 ng/μL) and incubated for 10 min. […] The plates were then incubated at room temperature for 60 min. Then, the reaction was stopped by adding 10 μL of E64 in assay buffer (final concentration 1 μM). The fluorescence in the wells was determined using a Molecular Devices SpectraMax M5 Fluorescence Reader (Ex 360 nm, Em 460 nm).
Each assay microtiter plate contains wells with vehicle controls (1% DMSO in bidest) as reference for non-inhibited enzyme activity (100% Ctl; high values) and wells with inhibitor (E64 in bidest+1% DMSO, final concentration […]) as controls for background fluorescence (0% Ctl; low values). The analysis of the data was performed by calculating the percentage of fluorescence in the presence of test compound in comparison to the fluorescence of the vehicle control after subtracting the background fluorescence: (RFU(sample)−RFU(background))*100/(RFU(control)−RFU(background))
Data from these calculations were used to generate IC50 values for inhibition of Cathepsin K, respectively.

Chain of recombinant human DPPI (Cathepsin C) (P53634 231-394): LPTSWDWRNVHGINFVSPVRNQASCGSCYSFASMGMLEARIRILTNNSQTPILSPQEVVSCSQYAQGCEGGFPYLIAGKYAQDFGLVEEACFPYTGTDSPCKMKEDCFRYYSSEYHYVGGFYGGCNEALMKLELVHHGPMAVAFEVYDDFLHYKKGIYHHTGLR
Chain of recombinant human DPPI (Cathepsin C) (P53634 395-463): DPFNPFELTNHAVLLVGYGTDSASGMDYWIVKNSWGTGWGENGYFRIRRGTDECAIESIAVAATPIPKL
Chain of recombinant human DPPI (Cathepsin C) (P53634 25-134): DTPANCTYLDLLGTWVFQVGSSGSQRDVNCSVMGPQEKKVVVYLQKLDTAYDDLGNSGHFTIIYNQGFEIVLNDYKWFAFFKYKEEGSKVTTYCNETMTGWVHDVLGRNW

SMILES	IC50 [1] [nM]	IC50 [2] [nM]
CC(=O)n1nc(-c2ccc(CC(C#N)NC(=O)[C@H]3N[C@@H]4CC[C@H]3C4)c(F)c2)cc1C (stereo partly drawn) [Example 7, (1S,2S,4R)—N-[2-[4-(1-acetyl-5-methyl-pyrazol-3-yl)-2-fluoro-phenyl]-1-cyano-ethyl]-3-azabicyclo[2.2.1]heptane-2-carboxamide]	1.9	8000
N#CC(Cc1ccc(-c2ccc3c(c2)COC3=O)cc1F)NC(=O)[C@H]1N[C@@H]2CC[C@H]1C2 (stereo partly shown) [Example 11]	1.7	2600
COC(=O)Cn1cc(-c2ccc(C[C@@H](C#N)NC(=O)[C@H]3N[C@@H]4CC[C@H]3C4)c(F)c2)cn1 [Example 13]	1.9	3400
COC(=O)c1cc(-c2ccc(C[C@@H](C#N)NC(=O)[C@H]3N[C@@H]4CC[C@H]3C4)c(F)c2)cs1 [Example 17]	2.6	6100
N#C[C@H](Cc1ccc(-c2ccsc2)cc1F)NC(=O)[C@H]1N[C@@H]2CC[C@H]1C2 [Example 18]	2.7	3000
CC(=O)n1cc(-c2ccc(C[C@@H](C#N)NC(=O)[C@H]3N[C@@H]4CC[C@H]3C4)c(F)c2)cn1 [Example 20]	3.1	2900
CC(C)(C)n1cc(-c2ccc(C[C@@H](C#N)NC(=O)[C@H]3N[C@@H]4CC[C@H]3C4)c(F)c2)cn1 [Example 23]	3.7	3800
Cc1ncc(-c2ccc(C[C@@H](C#N)NC(=O)[C@H]3N[C@@H]4CC[C@H]3C4)c(F)c2)s1 [Example 25]	3.9	6300
CCn1cc(-c2ccc(C[C@@H](C#N)NC(=O)[C@H]3N[C@@H]4CC[C@H]3C4)c(F)c2)cn1 [Example 26]	4	3600
Cc1ccc(-c2ccc(C[C@@H](C#N)NC(=O)[C@H]3N[C@@H]4CC[C@H]3C4)c(F)c2)o1 [Example 27]	4	3200
CCCn1cc(-c2ccc(C[C@@H](C#N)NC(=O)[C@H]3N[C@@H]4CC[C@H]3C4)c(F)c2)cn1 [Example 30]	4.2	3100
N#C[C@H](Cc1ccc(N2CCN(c3ccccc3)CC2)cc1F)NC(=O)[C@H]1N[C@@H]2CC[C@H]1C2 [Example 32, (1S,2S,4R)—N-[(1S)-1-cyano-2-[2-fluoro-4-(4-phenylpiperazin-1-yl)phenyl]ethyl]-3-azabicyclo[2.2.1]heptane-2-carboxamide]	4.5	3900
Cc1c(-c2ccc(C[C@@H](C#N)NC(=O)[C@H]3N[C@@H]4CC[C@H]3C4)c(F)c2)cnn1C [Example 39]	–	7800
Cc1cc(-c2ccc(C[C@@H](C#N)NC(=O)[C@H]3N[C@@H]4CC[C@H]3C4)c(F)c2)n(C)n1 [Example 63]	–	6200
Cc1c(-c2ccc(C[C@@H](C#N)NC(=O)[C@H]3N[C@@H]4CC[C@H]3C4)c(F)c2)cnn1C [Example 65]	–	11700
CC(C)n1cc(-c2ccc(CC(C#N)NC(=O)[C@H]3N[C@@H]4CC[C@H]3C4)c(F)c2)cn1 (stereo partly shown) [Example 68]	–	7300
COc1cccc(-c2cn(-c3ccc(C[C@@H](C#N)NC(=O)[C@H]4N[C@@H]5CC[C@H]4C5)c(F)c3)nn2)c1 [Example 94]	–	4900
CN(C)CCN1C(=O)Cc2cc(-c3ccc(C[C@@H](C#N)NC(=O)[C@H]4N[C@@H]5CC[C@H]4C5)c(F)c3)ccc21 [Example 279]	5.5	–
CC(C)N1CCC(c2ccc(C[C@@H](C#N)NC(=O)[C@H]3N[C@@H]4CC[C@H]3C4)c(F)c2)CC1 [Example 280]	21.2	–
CN(C)C(=O)c1cnn(-c2ccc(C[C@@H](C#N)NC(=O)[C@H]3N[C@@H]4CC[C@H]3C4)c(F)c2)c1 [Example 286]	38.9	–
N#C[C@H](Cc1ccc(-n2cc(C(=O)N3CCOCC3)cn2)cc1F)NC(=O)[C@H]1N[C@@H]2CC[C@H]1C2 [Example 287]	39.7	–
N#C[C@H](Cc1ccc(OCc2ccccc2)cc1F)NC(=O)[C@H]1N[C@@H]2CC[C@H]1C2 [Example 290]	20.6	–
COC(=O)c1ccc2[nH]c(=O)c3cc(CC(C#N)NC(=O)[C@H]4N[C@@H]5CC[C@H]4C5)ccc3c2c1 (stereo partly shown) [Example 299]	3.2	–

SMILES	IC50 [1] [nM]	IC50 [2] [nM]
N#Cc1cc2c(cc1C(F)(F)F)[nH]c(=O)c1cc(CC(C#N)NC(=O)[C@H]3N[C@@H]4CC[C@H]3C4)ccc12 (stereo partly shown) [Example 302]	4.7	–
N#CC(Cc1ccc2c(c1)c(=O)[nH]c1ccc(Cl)cc12)NC(=O)[C@H]1N[C@@H]2CC[C@H]1C2 (stereo partly shown) [Example 304]	6	–
N#Cc1ccc2c(c1)[nH]c(=O)c1cc(CC(C#N)NC(=O)[C@H]3N[C@@H]4CC[C@H]3C4)ccc12 (stereo partly shown) [Example 309]	9.1	–
COC(=O)c1cccc2c1[nH]c(=O)c1cc(CC(C#N)NC(=O)[C@H]3N[C@@H]4CC[C@H]3C4)ccc12 (stereo partly shown) [Example 311]	9.9	–
COc1ccc2[nH]c(=O)c3cc(CC(C#N)NC(=O)[C@H]4N[C@@H]5CC[C@H]4C5)ccc3c2c1 (stereo partly shown) [Example 312]	11	–
N#CC(Cc1ccc2c(cnc3ccccc32)c1)NC(=O)[C@H]1N[C@@H]2CC[C@H]1C2 (stereo partly shown) [Example 316]	42.4	–
N#C[C@H](Cc1cc(-c2cccc(O)n2)ccc1F)NC(=O)[C@H]1N[C@@H]2CC[C@H]1C2 [Example 317]	52	–
CN1CCN(c2ccc(F)c(C[C@@H](C#N)NC(=O)[C@H]3N[C@@H]4CC[C@H]3C4)c2)CC1 [Example 318]	212	–
N#C[C@H](Cc1ccc(N2C3CCC2CN(C2CCOC2)C3)cc1F)NC(=O)[C@H]1N[C@@H]2CC[C@H]1C2 (stereo partly shown) [Example 329]	7	–
N#C[C@H](Cc1ccc(-c2ccc3c(c2)CC(=O)N3C2CCNCC2)cc1F)NC(=O)[C@H]1N[C@@H]2CC[C@H]1C2 [Example 334]	22	–
N#C[C@H](Cc1ccc(N2CCN(C3CCOCC3)CC2)cc1F)NC(=O)[C@H]1N[C@@H]2CC[C@H]1C2 [Example 336]	24.5	–
N#C[C@H](Cc1ccc(C2CCN(C3CCOC3)CC2)cc1F)NC(=O)[C@H]1N[C@@H]2CC[C@H]1C2 (stereo partly shown) [Example 337]	28.2	–
N#C[C@H](Cc1ccc(C2CCCN(C3CCOC3)C2)cc1F)NC(=O)[C@H]1N[C@@H]2CC[C@H]1C2 (stereo partly shown) [Example 338]	44.3	–
CN1CCN(S(=O)(=O)c2cc(-c3ccc(C[C@@H](C#N)NC(=O)[C@H]4N[C@@H]5CC[C@H]4C5)c(F)c3)ccc2F)CC1 [Example 339]	1.3	–
CN1CCCN(S(=O)(=O)c2ccc(-c3ccc(C[C@@H](C#N)NC(=O)[C@H]4N[C@@H]5CC[C@H]4C5)c(F)c3)cc2)CC1 [Example 340]	1.8	–
COCCN1CCC(c2ccc(C[C@@H](C#N)NC(=O)[C@H]3N[C@@H]4CC[C@H]3C4)c(F)c2)C1 (stereo partly shown) [Example 350]	38.6	–
N#C[C@H](Cc1ccc2c(c1F)CCC(N1CCOCC1)C2)NC(=O)[C@H]1N[C@@H]2CC[C@H]1C2 (stereo partly shown) [Example 351]	82.8	–
N#C[C@H](Cc1ccc(N2CCC3COCC3C2)cc1F)NC(=O)[C@H]1N[C@@H]2CC[C@H]1C2 (stereo partly shown) [Example 352]	17.3	–
CN1CC2CCN(c3ccc(C[C@@H](C#N)NC(=O)[C@H]4N[C@@H]5CC[C@H]4C5)c(F)c3)C2C1 (stereo partly shown) [Example 353]	6.5	–
N#C[C@H](Cc1ccc(N2CCC3CN(C4CCOC4)CC32)cc1F)NC(=O)[C@H]1N[C@@H]2CC[C@H]1C2 (stereo partly shown) [Example 354]	6.8	–
CN1CCO[C@@H]2CN(c3ccc(C[C@@H](C#N)NC(=O)[C@H]4N[C@@H]5CC[C@H]4C5)c(F)c3)C[C@@H]21 [Example 355]	22.4	–
CN1CCO[C@@H]2CCN(c3ccc(C[C@@H](C#N)NC(=O)[C@H]4N[C@@H]5CC[C@H]4C5)c(F)c3)C[C@@H]21 [Example 356]	20	–
CN1CCO[C@H]2CN(c3ccc(C[C@@H](C#N)NC(=O)[C@H]4N[C@@H]5CC[C@H]4C5)c(F)c3)CC[C@@H]21 [Example 357]	33.8	–
